Data from US20100105773A1, “USE OF RESOLVINS AND DOCOSATRIENES AND ANALOGUES THEREOF FOR THE TREATMENT OF ANGIOGENESIS AND OCULAR NEOVASCULARIZATION” (THE CHILDREN'S MEDICAL CENTER CORPORATION, priority 2006, published 2010).
“Also recorded” adds a separate entry of the source.

Experiments:
TNF-α = details: literature refs 14-16; cited from earlier work
[1] = tested on: oxygen-induced vessel loss (retinal vasculature); test: Oxygen-induced vessel loss (vaso-obliteration) at P8 after 24 hours of 75% oxygen; type: in vivo, mouse; details: 10 ng i.p. P5-P8, 24 hours of 75% oxygen
Protocol: O2-induced retinopathy (vessel degeneration, re-growth and pathological neovascularization). To induce vessel loss, postnatal day 7 (P7) mice with their nursing mother were exposed to 75% oxygen for times ranging from 24 hours to 5 days^1. To evaluate vaso-obliteration following 24 hours of oxygen exposure, P8 mice were anesthetized at with Avertin (Sigma) and perfused with 50 μl of 120 mg/ml FITC-dextran (2×10^6 molecular weight, FD2000S-5G, Sigma) in saline through the left ventricle^21. Eyes were enucleated and fixed in 4% paraformaldehyde for 2 h at 4° C. Retinas were isolated and whole-mounted with SlowFade Antifade reagent (S2828, Molecular Probes) onto polylysin-coated slides with the photoreceptor side up. Retinas were examined with a fluorescence microscope (Olympus, Tokyo), digitized images using a three-charge-coupled device color video camera (DX-950P, Sony), and processed with NORTHERN ECLIPSE software (Empix Imaging, Toronto). Retinal neovascularization was evaluated 5 days after oxygen exposure (P7-P12) at P17 when the neovascular response is greatest. […]
Quantification of vaso-obliteration and retinal neovascularization. […] Vaso-obliteration and neovascular tuft formation were quantified by comparing the number of pixels in the affected areas with the total number of pixels in the retina. […]
Resolvins and Neuroprotectins. […] Retinas collected at P17 from omega-6 or omega-3 polyunsaturated fatty acid fed dams and exposed to high oxygen or room air conditions were analyzed to determine lipid mediator profiles. Polyunsaturated fatty acid derived products were extracted, identified, and quantified using a deuterium-labeled internal standard and MS-MS based mediator informatics^23. […] Following retinal staining and whole-mounting, neovascularization and vaso-obliteration were quantified at P17. Vaso-obliteration was also assessed at P8 (after 24 hours of 75% oxygen exposure) in pups given 10 ng of RvD1 (n=7), RvE1 (n=9), NPD1 (n=7), or saline/EtOH vehicle injections (n=6) i.p. from P5-P8. […]

[2] = tested on: oxygen-induced retinopathy (retinal vasculature); test: O2-induced retinopathy: vaso-obliteration and neovascularization at P17; type: in vivo, mouse; details: for decrease in neovascularization (Tufts) compared to vehicle / decrease in vessel loss (VO) compared to vehicle control: 10 ng i.p. daily P6-P17, read at P17; for neovascularization at P17 compared to saline controls / protection from vaso-obliteration compared to saline-injected controls: 10 ng/day i.p. P6-P17
Protocol: O2-induced retinopathy (vessel degeneration, re-growth and pathological neovascularization). To induce vessel loss, postnatal day 7 (P7) mice with their nursing mother were exposed to 75% oxygen for times ranging from 24 hours to 5 days^1. To evaluate vaso-obliteration following 24 hours of oxygen exposure, P8 mice were anesthetized at with Avertin (Sigma) and perfused with 50 μl of 120 mg/ml FITC-dextran (2×10^6 molecular weight, FD2000S-5G, Sigma) in saline through the left ventricle^21. Eyes were enucleated and fixed in 4% paraformaldehyde for 2 h at 4° C. Retinas were isolated and whole-mounted with SlowFade Antifade reagent (S2828, Molecular Probes) onto polylysin-coated slides with the photoreceptor side up. Retinas were examined with a fluorescence microscope (Olympus, Tokyo), digitized images using a three-charge-coupled device color video camera (DX-950P, Sony), and processed with NORTHERN ECLIPSE software (Empix Imaging, Toronto). Retinal neovascularization was evaluated 5 days after oxygen exposure (P7-P12) at P17 when the neovascular response is greatest. P17 mice were given a lethal dose of Avertin (Sigma) and their eyes were enucleated and fixed in 4% paraformaldehyde for 2 h at 4° C. Retinas were isolated and stained overnight with fluoresceinated Griffonia Bandereiraea Simplicifolia Isolectin B4 (Alexa Fluor 488-121411 or Alexa Fluor 594-121413, Molecular Probes) in 1 mM CaCl2 in PBS. Following 2 hours of washes, retinas were whole-mounted with glycerol-gelatin (Sigma) onto polylysin-coated slides with the photoreceptor side up and imaged with a confocal microscope.
Quantification of vaso-obliteration and retinal neovascularization. Images of each of 4 quadrants of whole-mounted retina were taken at 5× magnification and imported into Adobe Photoshop. Retinal segments were merged to produce an image of the entire retina. Vaso-obliteration and neovascular tuft formation were quantified by comparing the number of pixels in the affected areas with the total number of pixels in the retina. Percentages of vaso-obliteration and neovascularization from mouse retinas were compared with values for retinas from age-matched control mice with identical oxygen conditions^17,22. Evaluation was done blind to the identity of the sample.
Resolvins and Neuroprotectins. C57B1/6 nursing mothers were fed a diet rich in either omega-6 or omega-3 polyunsaturated fatty acids from birth. To induce proliferative retinopathy in the pups, mice were exposed to 75% oxygen from P7 to P12. Retinas collected at P17 from omega-6 or omega-3 polyunsaturated fatty acid fed dams and exposed to high oxygen or room air conditions were analyzed to determine lipid mediator profiles. Polyunsaturated fatty acid derived products were extracted, identified, and quantified using a deuterium-labeled internal standard and MS-MS based mediator informatics^23. Results were obtained from retinas of six mice, each from a separate litter. Treatments with synthetic RvD1 (7S,8R,17S-trihydroxy-docosa-4Z,9E,11E,13Z,15E,19Z-hexaenoic acid), RvE1 (5S,12R,18R-trihydroxy-6Z,8E,10E,14Z,16E-eicosapentaenoic acid) and Neuroprotectin-D1 (10R,17S dihydroxy-docosa-4Z,7Z,11E,13E,15Z,19z-hexaneoic acid) were performed in 4 litters of mice. RvD1, RvE1 and NPD1 were prepared by organic synthesis according to published procedures matching physical and biological criteria^14,24,25. The pups were injected i.p. daily from P6-P17 (before, during, and after exposure to 75% oxygen) with 10 ng of either RvD1 (n=14), RvE1 (n=10) or NPD1 (n=14) or Saline/EtOH (n=14) vehicle. Following retinal staining and whole-mounting, neovascularization and vaso-obliteration were quantified at P17. Vaso-obliteration was also assessed at P8 (after 24 hours of 75% oxygen exposure) in pups given 10 ng of RvD1 (n=7), RvE1 (n=9), NPD1 (n=7), or saline/EtOH vehicle injections (n=6) i.p. from P5-P8. Vaso-obliteration was quantified on retinal whole-mounts following FITC-dextran intracardiac perfusion and fixation as above. […]

[3] = tested on: oxygen-induced retinopathy (retinal vasculature); test: as above; type: in vivo, mouse
[4] = i.p. injection, 500 μg/mouse at P7, P12, P14, P16, omega-6 PUFA fed mice
[5] = intraocular (intravitreous) injection 12.5 μg on P12, omega-6 PUFA fed mice

Compound	TNF-α mRNA expression levels in inflammatory models (TNF-α)	oxygen-induced vessel loss (VO) at P8 compared to saline-injected control [1]	decrease in neovascularization (Tufts) compared to vehicle [2]	decrease in vessel loss (VO) compared to vehicle control [2]	neovascularization at P17 compared to saline controls [2]	protection from vaso-obliteration compared to saline-injected controls [2]	pathologic neovascularization compared to saline injected controls [3, 4]	vaso-obliteration (vessel loss) compared to saline injected controls [3, 4]	retinal neovascularization compared to fellow saline-injected eye [3, 5]	vaso-obliteration compared to fellow saline-injected eye [3, 5]
CC/C=C\C[C@H](O)\C=C/C=C/C=C/[C@H](O)C/C=C\C/C=C\CCC(=O)O [NPD1, 10R,17S dihydroxy-docosa-4Z,7Z,11E,13E,15Z,19z-hexaneoic acid]	significantly reduce TNF-α mRNA expression levels	No apparent differences in vessel loss; also recorded: no protective action	30%	40%	less neovascularization	significant protection from vaso-obliteration				
etanercept							significantly protected; also recorded: significant reduction in pathologic neovascularization	significantly protected; also recorded: significant reduction in vaso-obliteration	suppressed retinal neovascularization; also recorded: significantly improved neovascularization	significantly reduce vaso-obliteration
CC/C=C\C[C@H](O)/C=C/C=C\C=C\C=C\[C@@H](O)[C@@H](O)C/C=C\CCC(=O)O [RvD1, 7S,8R,17S-trihydroxy-docosa-4Z,9E,11E,13Z,15E,19Z-hexaenoic acid]	significantly reduce TNF-α mRNA expression levels	No apparent differences in vessel loss	30%	40%	less neovascularization	significant protection from vaso-obliteration				
CC[C@@H](O)/C=C/C=C\C[C@@H](O)/C=C/C=C/C=C\[C@@H](O)CCCC(=O)O [RvE1, 5S,12R,18R-trihydroxy-6Z,8E,10E,14Z,16E-eicosapentaenoic acid]	significantly reduce TNF-α mRNA expression levels	No apparent differences in vessel loss; also recorded: no protective action	30%	40%	less neovascularization	significant protection from vaso-obliteration				
